The subject of one series is Escherichia coli. Put plainly: Tested for antibacterial activity against Escherichia coli; IA - No useful antibacterial activity. Format: functional, organism-based.
Another series deals with Streptococcus pneumoniae. Nature of the series: Tested for antibacterial activity against Streptococcus pneumoniae; IA - No useful antibacterial activity. Format: functional, organism-based.
Another series has as its system Staphylococcus aureus. Put plainly: Tested for antibacterial activity against Staphylococcus aureus; IA - No useful antibacterial activity. Format: functional, organism-based.
Series [1] is described as follows: Half life in pH 7 buffer solution was determined. Format: ADME.

Calls of active or inactive are those of the source. No cut-off for these calls is given here.

For `C[C@H]1[C@H](NC(=O)COc2ccccc2)C(=O)N1c1c([O-])c(=O)c1=O.[K+]`, the outcome in the series with Escherichia coli, in the series with Streptococcus pneumoniae and in the series on Staphylococcus aureus was inactive. In addition, the half-life in series [1] was 168 h.

Turning to `CO/N=C(/C(=O)N[C@H]1CN(c2c(O)c(=O)c2=O)C1=O)c1csc(N)n1`, the result in the series on Escherichia coli, in the series on Streptococcus pneumoniae and with Staphylococcus aureus was inactive.

For `O=C(COc1ccccc1)N[C@H]1CN(c2c([O-])c(=O)c2=O)C1=O.[K+]`, the outcome in the series on Escherichia coli, in the series on Streptococcus pneumoniae and in the series on Staphylococcus aureus was inactive. In addition, the half-life in series [1] is 72 h.

(Values after ChEMBL document CHEMBL1126374, “Synthesis of -(S)-acylamino-N-(hydroxydioxocyclobutenyl)--lactams as potential antibiotics” (Bioorg Med Chem Lett, 1992).)
